The values that follow are results of earlier work, collected in patent US9682063B2, “HCD formulation for cancer treatment” (National Dong Hwa University, priority 2015, dated 2017).

In data set [1] the test system is CML K562 cells. The following applies: background statement.
The conditions of data set [2]: background statement.

For `CC1=CCCC2C1(C)CCC(C)C2(C)CCC1=CC(=O)OC1O` (centres unmarked) [HCD, 16-Hydroxycleroda-3,13-dien-15,16-olide], the “apoptosis in CML K562 cells” value in data set [1] is “induces apoptosis in CML K562 cells”. The water solubility entry in data set [2] is listed as “poor water solubility”.
